29 molecules from patent publication US11273168B2, “Methods of treating anxiety by administering a substituted quinolone” (OTSUKA PHARMACEUTICAL CO., LTD., priority 2010, dated 2022) can be followed below.

Counter-ions that a name gives are not always drawn. Like-named read-outs stand apart in the source and are kept apart here.

Holding throughout (format): biochemical
The target in assay [1] is T1, Serotonin (5-HT) uptake (Rattus norvegicus, UniProt P31652).
T1 construct: The suspension was used as a crude synaptosome fraction; from tissue; host or cells: rat (male Wistar) frontal cortex, crude synaptosome fraction
T1 sequence (P31652 whole entry): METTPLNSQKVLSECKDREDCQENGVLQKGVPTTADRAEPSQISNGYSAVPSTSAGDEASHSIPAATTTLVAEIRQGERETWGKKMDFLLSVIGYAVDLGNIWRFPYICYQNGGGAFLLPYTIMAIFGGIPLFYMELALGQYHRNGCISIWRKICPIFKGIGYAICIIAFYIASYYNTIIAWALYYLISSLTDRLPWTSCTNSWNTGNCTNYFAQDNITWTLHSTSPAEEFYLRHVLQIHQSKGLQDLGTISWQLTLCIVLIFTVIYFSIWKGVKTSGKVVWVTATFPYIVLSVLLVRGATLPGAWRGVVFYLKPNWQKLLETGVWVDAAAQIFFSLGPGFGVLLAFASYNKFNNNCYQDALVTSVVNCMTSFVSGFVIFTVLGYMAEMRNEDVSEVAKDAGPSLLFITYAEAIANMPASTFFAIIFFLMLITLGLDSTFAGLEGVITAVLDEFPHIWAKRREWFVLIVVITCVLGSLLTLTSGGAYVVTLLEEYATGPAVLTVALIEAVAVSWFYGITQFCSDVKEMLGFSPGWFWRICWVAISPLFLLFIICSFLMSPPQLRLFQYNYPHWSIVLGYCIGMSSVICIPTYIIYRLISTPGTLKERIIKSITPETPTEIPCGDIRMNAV
The assay can be described thus: Serotonin (5-HT) uptake inhibitory activity using rat brain synaptosome (frontal cortex). As to conditions: tritium-labeled 5-HT 8 nM, 37° C. 10 minutes. The method, then:
Measurement of Serotonin (5-HT) Uptake Inhibitory Activity of Test Compound Using Rat Brain Synaptosome
Male Wistar rats were decapitated, and their brains were removed and dissected to remove the frontal cortex. The separated frontal cortex was placed in a 20-fold weight of a 0.32 molarity (M) sucrose solution and homogenized with a potter homogenizer. The homogenate was centrifuged at 1000 g at 4° C. for 10 minutes, and the supernatant was further centrifuged at 20000 g at 4° C. for 20 minutes. […] The suspension was used as a crude synaptosome fraction.
(§1) Uptake reaction was performed using each well of a 96-well round-bottom plate and a 200 μl volume in total of a solution containing pargyline (final concentration: 10 μM) and ascorbic acid (final concentration: 0.2 mg/ml).
(§2) Specifically, a solvent, unlabeled 5-HT, and serially diluted test compounds were separately added to the wells, and the synaptosome fraction was added in an amount 1/10 of the final volume to each well and preincubated at 37° C. for 10 minutes. Then, a tritium-labeled 5-HT solution (final concentration: 8 nM) was added thereto to initiate uptake reaction at 37° C. 10 minutes later, the uptake reaction was terminated by suction filtration through a 96-well glass fiber filter plate. Furthermore, the filter was washed with a cold saline and then sufficiently dried. MicroScint-O (PerkinElmer Co., Ltd.) was added thereto, and the residual radioactivity on the filter was measured.
An uptake value obtained by the addition of only the solvent was defined as 100%, and an uptake value (nonspecific uptake value) obtained by the addition of the unlabeled 5-HT (final concentration: 10 μM) was defined as 0%. A 50%, inhibitory concentration was calculated from the test compound concentrations and inhibitory activities thereat.

For assay [2], the target named is Norepinephrine (NE) uptake (Rattus norvegicus, UniProt Q9WTR4). The assay can be described thus: Norepinephrine (NE) uptake inhibitory activity using rat brain synaptosome (hippocampus). The method, then: Measurement of Norepinephrine (NE) Uptake Inhibitory Activity of Test Compound Using Rat Brain Synaptosome
Male Wistar rats were decapitated, and their brains were removed and dissected to remove the hippocampus. The separated hippocampus was placed in a 20-fold weight of a 0.32 molarity (M) sucrose solution and homogenized with a potter homogenizer. The homogenate was centrifuged at 1000 g at 4° C. for 10 minutes, and the supernatant was further centrifuged at 20000 g at 4° C. for 20 minutes. The pellet was suspended in an incubation buffer (20 mM HEPES buffer (pH 7.4) containing 10 mM glucose, 145 mM sodium chloride, 4.5 mM potassium chloride, 1.2 mM magnesium chloride, and 1.5 mM calcium chloride). The suspension was used as a crude synaptosome fraction.
as §1
as §2, with “unlabeled NE,” for “unlabeled 5-HT,”, “tritium-labeled NE” for “tritium-labeled 5-HT”, “concentration: 12” for “concentration: 8”, “C. Ten” for “C. 10”
An uptake value obtained by the addition of only the solvent was defined as 100%, and an uptake value (nonspecific uptake value) obtained by the addition of the unlabeled NE (final concentration: 10 μM) was defined as 0%. A 50% inhibitory concentration was calculated from the test compound concentrations and inhibitory activities thereat.

Assay [3] deals with T2, Dopamine (DA) uptake (Rattus norvegicus, UniProt P23977).
T2 construct: The suspension was used as a crude synaptosome fraction; from tissue; host or cells: rat (male Wistar) corpus striatum, crude synaptosome fraction
T2 sequence (P23977 whole entry): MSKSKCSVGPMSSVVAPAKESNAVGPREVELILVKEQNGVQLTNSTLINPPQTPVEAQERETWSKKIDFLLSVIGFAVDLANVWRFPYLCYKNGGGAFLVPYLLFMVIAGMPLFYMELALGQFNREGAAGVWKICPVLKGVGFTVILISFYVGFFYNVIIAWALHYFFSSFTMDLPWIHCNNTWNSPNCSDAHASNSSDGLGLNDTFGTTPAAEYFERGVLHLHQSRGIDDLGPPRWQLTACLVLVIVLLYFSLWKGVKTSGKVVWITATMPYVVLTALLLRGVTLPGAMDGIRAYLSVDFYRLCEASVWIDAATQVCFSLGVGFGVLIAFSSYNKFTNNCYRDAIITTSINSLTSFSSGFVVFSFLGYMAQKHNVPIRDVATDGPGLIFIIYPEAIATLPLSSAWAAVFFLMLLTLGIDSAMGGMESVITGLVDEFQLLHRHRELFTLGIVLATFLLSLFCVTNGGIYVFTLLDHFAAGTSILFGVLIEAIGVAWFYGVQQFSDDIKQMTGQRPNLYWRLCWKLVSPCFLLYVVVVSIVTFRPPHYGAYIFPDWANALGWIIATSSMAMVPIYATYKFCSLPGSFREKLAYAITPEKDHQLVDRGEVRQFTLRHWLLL
The assay can be described thus: Dopamine (DA) uptake inhibitory activity using rat brain synaptosome (corpus striatum). As to conditions: tritium-labeled DA 2 nM, 37° C. ten minutes, read-out: 50% Inhibitory concentration. As to the method: Measurement of Dopamine (DA) Uptake Inhibitory Activity of Test Compound Using Rat Brain Synaptosome
Male Wistar rats were decapitated, and their brains were removed and dissected to remove the corpus striatum. The separated corpus striatum was placed in a 20-fold weight of a 0.32 molarity (M) sucrose solution and homogenized with a potter homogenizer. The homogenate was centrifuged at 1000 g at 4° C. for 10 minutes, and the supernatant was further centrifuged at 20000 g at 4° C. for 20 minutes. […] The suspension was used as a crude synaptosome fraction.
Uptake reaction was performed using each well of a 96-well round-bottom plate and a 200 μl volume in total of a solution containing pargyline (final concentration: 10 μM) and ascorbic acid (final concentration: 0.2 mg/mil).
as §2, with “unlabeled DA,” for “unlabeled 5-HT,”, “tritium-labeled DA” for “tritium-labeled 5-HT”, “concentration: 2” for “concentration: 8”, “C. Ten” for “C. 10”
An uptake value obtained by the addition of only the solvent was defined as 100%, and an uptake value (nonspecific uptake value) obtained by the addition of the unlabeled DA (final concentration: 10 μM) was defined as 0%. A 50% inhibitory concentration was calculated from the test compound concentrations and inhibitory activities thereat.

[4] abbreviates: read-out: 50% Inhibitory concentration.
The mark [5] stands for this setting: tritium-labeled NE 12 nM, 37° C. ten minutes, read-out: 50% inhibitory concentration.

Regarding `CC1(C)CN(c2cccc3ncccc23)[C@H]2CCCC[C@H]2N1` [Example 120], the IC50 in assay [1] (50% Inhibitory concentration) was 9.2 nM; in assay [2] (read-out: 50% inhibitory concentration, tritium-labeled NE 12 nM, 37° C. ten minutes), 9.2 nM; in assay [3], 187 nM.
As for `CC1(C)CN(c2cccc3occc23)[C@H]2CCCC[C@@H]2N1` [Example 191], the IC50 in assay [1] (setting [4]) was found to be 3.2 nM; in assay [2] (setting [5]) it was 2.1 nM; in assay [3] it was 13.5 nM.
Regarding `CC1(C)CN(c2ccc3sccc3c2)[C@H]2CCCC[C@@H]2N1` [Example 186], the IC50 was found to be 5.2 nM in assay [1] (setting [4]), 3.8 nM in assay [2] (setting [5]) and 29.8 nM in assay [3].
As for `CC1(C)CN(c2ccc(O)c(Cl)c2)[C@H]2CCCC[C@@H]2N1` [Example 918], the IC50 in assay [1] (setting [4]) is 10 nM; in assay [2] (setting [5]), 0.8 nM; in assay [3], 42 nM.
In the case of `CC1(C)CN(c2ccc3sccc3c2)[C@H]2CCC[C@@H]2N1` (relative stereo) [Example 13], the IC50 in assay [1] (setting [4]) stood at 5.1 nM; in assay [2] (setting [5]) it was 14.3 nM; in assay [3], 85.4 nM.
For `CC1(C)CN(c2ccc(OC(F)F)c(F)c2)[C@H]2CCCC[C@@H]2N1` [Example 587, (4aS,8aS)-1-(4-(difluoromethoxy)-3-fluorophenyl)-3,3-dimethyldecahydroquinoxaline dihydrochloride], the IC50 in assay [1] (setting [4]) is 0.9 nM; in assay [2] (setting [5]) it was 1.9 nM; in assay [3], 76.1 nM.
`c1cc(N2CC3(CCC3)N[C@H]3CCCC[C@@H]32)c2ccoc2c1` [Example 1047]: the IC50 was found to be 0.7 nM in assay [1] (setting [4]), 0.7 nM in assay [2] (setting [5]) and 1.1 nM in assay [3].
Consider `CC1(C)CN(c2ccc3sccc3c2)[C@H]2CCCCC[C@@H]2N1` (relative stereo) [Example 348], for which the IC50 in assay [1] (setting [4]) was 6.4 nM; in assay [2] (setting [5]), 4.6 nM; in assay [3], 27.3 nM.
For `CC[C@@H]1CN(c2ccc3ccccc3c2)[C@H]2CCCC[C@@H]2N1C` (relative stereo) [Example 288], the IC50 in assay [1] (setting [4]) was determined as 56.1 nM; in assay [2] (setting [5]), 22 nM; in assay [3] it was 74.7 nM.
With `Clc1ccc(N2CCN[C@H]3CCCC[C@@H]32)c2ccoc12` [Example 1083], the values for the IC50 in assay [1] (setting [4]), in assay [2] (setting [5]) and in assay [3] were 5.1 nM, 2.5 nM and 53.7 nM, respectively.
On to `CC1(C)CN(c2cc(Cl)c3occc3c2)[C@H]2CCCC[C@@H]2N1` [Example 884], for which the IC50 in assay [1] (setting [4]) was determined as 7.3 nM; in assay [2] (setting [5]) it was 4.8 nM; in assay [3] it was 52.8 nM.
As to `CC1(C)CN(c2ccc3cc(O)ccc3c2)[C@H]2CCCC[C@@H]2N1` [Example 850], the IC50 in assay [1] (setting [4]) came to 7.3 nM; in assay [2] (setting [5]), 1 nM; in assay [3] it was 7 nM.
For `Cc1noc(-c2ccc(N3C[C@@H](C)N[C@H]4CCCC[C@@H]43)cc2)n1` [Example 1333], in that order: 84.2 nM, 39.6 nM and 73 nM.
On the same counts, the results for `CC1(C)CN(c2cccc3[nH]ccc23)[C@@H]2CCCC[C@@H]2N1` [Example 85] are 7.2 nM, 4.9 nM and 95.7 nM.
For the molecule `c1cc2cc(N3CC4(CCCC4)N[C@H]4CCCC[C@@H]43)ccc2s1` (relative stereo) [Example 307], the IC50 in assay [1] (setting [4]) came out at 19.3 nM; in assay [2] (setting [5]), 40.4 nM; in assay [3], 68.2 nM.
Take `CC1(C)CN(c2ccc(F)c(Cl)c2)[C@@H]2CCCC[C@@H]2N1` [Example 112, (4aS,8aR)-1-(3-chloro-4-fluorophenyl)-3,3-dimethyldecahydroquinoxaline hydrochloride]: the IC50 worked out at 7.1 nM in assay [1] (setting [4]), 87.3 nM in assay [2] (setting [5]) and 264 nM in assay [3].
`CC1(C)CN(c2ccc3occc3c2)[C@H]2CCCC[C@@H]2N1` [Example 196]: the results for the IC50 in assay [1] (setting [4]), in assay [2] (setting [5]) and in assay [3] were 4.4 nM, 1.7 nM and 18.3 nM, respectively.
Take `CC1(C)CN(c2csc3ccccc23)[C@@H]2CCCC[C@@H]2N1` [Example 577]: the IC50 is 5.2 nM in assay [1] (setting [4]), 5.9 nM in assay [2] (setting [5]) and 47.9 nM in assay [3].
For `CC1(C)CN(c2cccc3ccsc23)[C@H]2CCCC[C@H]2N1` [Example 130], the IC50 was found to be 5.3 nM in assay [1] (setting [4]), 0.5 nM in assay [2] (setting [5]) and 3.9 nM in assay [3].
On the same counts, the results for `CC1(C)CN(c2cccc3occc23)[C@@H]2CCCC[C@@H]2N1` (relative stereo) [Example 33] are 2.6 nM, 0.7 nM and 15.1 nM.
For `CC1(C)CN(c2ccc3ccsc3c2)[C@H]2CCCC[C@@H]2N1` [Example 188], the values for the IC50 in assay [1] (setting [4]), in assay [2] (setting [5]) and in assay [3] were 6 nM, 0.8 nM and 7.9 nM, respectively.
As for `Clc1ccc(N2CC3(CCC3)N[C@H]3CCCC[C@H]32)cc1` [Example 276], the figures for the IC50 in assay [1] (setting [4]), in assay [2] (setting [5]) and in assay [3] were 7.2 nM, 4.5 nM and 10.9 nM, respectively.
With `CC1(C)CN(c2cccc3occc23)[C@H]2CCCC[C@H]2N1` [Example 131], the IC50 came to 6.1 nM in assay [1] (setting [4]), 0.7 nM in assay [2] (setting [5]) and 8.3 nM in assay [3].
On to `CC1(C)CN(c2ccc(F)c3ccccc23)[C@H]2CCCC[C@@H]2N1` (relative stereo) [Example 409], for which the IC50 in assay [1] (setting [4]) turned out to be 35.6 nM; in assay [2] (setting [5]), 9.1 nM; in assay [3] it was 165 nM.
For `CC1(C)CN(c2ccc(Cl)c3occc23)[C@H]2CCCC[C@@H]2N1` [Example 193], in that order: 3.4 nM, 4.4 nM and 5.7 nM.
Consider `CC1(C)CN(c2cccc3ccsc23)[C@@H]2CCCC[C@@H]2N1` [Example 72], for which the IC50 amounted to 2.6 nM in assay [1] (setting [4]), 1 nM in assay [2] (setting [5]) and 47.9 nM in assay [3].
Consider `COc1cc2ccc(N3CC(C)(C)N[C@H]4CCCC[C@H]43)cc2cc1C#N` [Example 610], for which the IC50 was 4.6 nM in assay [1] (setting [4]), 5.9 nM in assay [2] (setting [5]) and 13.2 nM in assay [3].
On the same counts, the results for `C[C@@H]1CN(c2ccc3sccc3c2)[C@H]2CCCC[C@@H]2N1` (relative stereo) [Example 285] are 19.7 nM, 1.4 nM and 43.9 nM.
Regarding `CC1(C)CN(c2ccc(F)c3c2CCC3)[C@H]2CCCC[C@H]2N1` [Example 791], the results for the IC50 in assay [1] (setting [4]), in assay [2] (setting [5]) and in assay [3] were 1.4 nM, 0.7 nM and 161 nM, respectively.
